This passage reports MIC and permeability results from ChEMBL document CHEMBL1153555, “Molecular mechanism of target recognition by subtilin, a class I lanthionine antibiotic” (Antimicrob Agents Chemother, 2008).

One data set concerns Lactococcus lactis. Description: Antibacterial activity against Lactococcus lactis MG1614 by disk diffusion assay. The format is functional. A general note: Agar diffusion results depend on both activity and mobility in agar.
The nature of data set [1]: Permeability across Micrococcus luteus ATCC 4698 lipid II-containing unilamellar vesicle of 1,2-dioleoyl-sn-gltcero-3-phosphocholine and 1,2-dioleoyl-sn-glycero-3-phosphoglycerol assessed as partial leakage after disintegration of vesicles at lower concentration by carboxyfluorescein leakage assay. The format is ADME.

SMILES strings stand for the structures. Values after ≈ are worked out from the molar mass of the structure shown. Bounds are passed on as bounds.

In turn, `C=C1NC(=O)[C@H](CCC(=O)O)NC(=O)[C@H](NC(=O)[C@@H](N)CCCCN)CSC[C@@H](C(=O)N[C@H]2C(=O)N3CCC[C@H]3C(=O)NCC(=O)N[C@H](C(=O)N[C@H](C(=O)N[C@H]3C(=O)NCC(=O)N[C@@H](C)C(=O)N[C@@H](CC(C)C)C(=O)N[C@@H](CCC(N)=O)C(=O)N/C(=C\C)C(=O)N[C@H](C(=O)N[C@@H](Cc4ccccc4)C(=O)N[C@@H](CC(C)C)C(=O)N[C@@H](CCC(N)=O)C(=O)N[C@H]4C(=O)N[C@@H](CC(C)C)C(=O)N[C@H]5C(=O)N[C@@H](CS[C@H]4C)C(=O)N[C@@H](CC(N)=O)C(=O)N[C@H](C(=O)N[C@@H](CCCCN)C(=O)O)CS[C@H]5C)CS[C@H]3C)C(C)C)CS[C@H]2C)NC(=O)[C@H](CC(C)C)NC1=O` yielded a minimum inhibitory concentration (MIC) in the data set with Lactococcus lactis of over 50 µg/mL. `C=C1NC(=O)CC[C@@H](C(=O)O)NC(=O)[C@H](NC(=O)[C@H](CCCCN)NC(=O)[C@@H](N)Cc2c[nH]c3ccccc23)CSC[C@@H](C(=O)N[C@@H]2C(=O)N3CCC[C@H]3C(=O)NCC(=O)N[C@H](C(=O)N[C@H](C(=O)N[C@@H]3C(=O)NCC(=O)N[C@@H](C)C(=O)N[C@@H](CC(C)C)C(=O)N[C@@H](CCC(N)=O)C(=O)N/C(=C/C)C(=O)N[C@H](C(=O)N[C@@H](Cc4ccccc4)C(=O)N[C@@H](CC(C)C)C(=O)N[C@@H](CCC(N)=O)C(=O)N[C@@H]4C(=O)N[C@@H](CC(C)C)C(=O)N[C@H]5C(=O)N[C@@H](CSC4C)C(=O)NC(=O)[C@H](CC(N)=O)N[C@H](C(=O)N[C@@H](CCCCN)C(=O)O)CSC5C)CSC3C)C(C)C)CSC2C)N[C@@H](CC(C)C)C(=O)NC1=O` (stereo not given in full) displayed a minimal inhibitory concentration (MIC) against Lactococcus lactis of 11.5 µg/mL (≈ 3.82 µM). The same measure, in the same setting: the result for `C=C(NC(=O)[C@@H](NC(=O)[C@H](CCCCN)NC(=O)[C@@H]1CS[C@@H](C)[C@H]2NC(=O)[C@H](CC(C)C)NC(=O)[C@H](NC(=O)[C@H](CCC(N)=O)NC(=O)[C@H](CC(C)C)NC(=O)[C@H](Cc3ccccc3)NC(=O)[C@@H]3CS[C@@H](C)[C@@H](NC(=O)[C@@H](NC(=O)[C@@H]4CS[C@@H](C)[C@@H](NC(=O)[C@@H]5CSC[C@@H](NC(=O)[C@H](CCCCN)NC(=O)[C@H](Cc6c[nH]c7ccccc67)NC(=O)CCC(=O)O)C(=O)N[C@@H](CCC(=O)O)C(=O)NC(=C)C(=O)N[C@@H](CC(C)C)C(=O)N5)C(=O)N5CCC[C@H]5C(=O)NCC(=O)N4)C(C)C)C(=O)NCC(=O)N[C@@H](C)C(=O)N[C@@H](CC(C)C)C(=O)N[C@@H](CCC(N)=O)C(=O)N/C(=C\C)C(=O)N3)[C@H](C)SC[C@H](NC2=O)C(=O)N[C@@H](CC(N)=O)C(=O)N1)[C@@H](C)CC)C(=O)N[C@@H](CCCCN)C(=O)O` reads 19.2 µg/mL (≈ 5.6 µM).

Regarding `C=C(NC(=O)[C@@H](NC(=O)[C@H](CCCCN)NC(=O)[C@@H]1CS[C@@H](C)[C@H]2NC(=O)[C@H](CC(C)C)NC(=O)[C@H](NC(=O)[C@H](CCC(N)=O)NC(=O)[C@H](CC(C)C)NC(=O)[C@H](Cc3ccccc3)NC(=O)[C@@H]3CS[C@@H](C)[C@@H](NC(=O)[C@@H](NC(=O)[C@@H]4CS[C@@H](C)[C@@H](NC(=O)[C@@H]5CSC[C@@H](NC(=O)[C@H](CCCCN)NC(=O)[C@@H](N)Cc6c[nH]c7ccccc67)C(=O)N[C@@H](CCC(=O)O)C(=O)NC(=C)C(=O)N[C@@H](CC(C)C)C(=O)N5)C(=O)N5CCC[C@H]5C(=O)NCC(=O)N4)C(C)C)C(=O)NCC(=O)N[C@@H](C)C(=O)N[C@@H](CC(C)C)C(=O)N[C@@H](CCC(N)=O)C(=O)N/C(=C\C)C(=O)N3)[C@H](C)SC[C@H](NC2=O)C(=O)N[C@@H](CC(N)=O)C(=O)N1)[C@@H](C)CC)C(=O)N[C@@H](CCCCN)C(=O)O` [SUBTILIN], the permeability in data set [1] amounted to 20%.

The compound `C=C1NC(=O)CC[C@@H](C(=O)O)NC(=O)[C@H](NC(=O)[C@H](CCCCN)NC(=O)[C@@H](N)Cc2c[nH]c3ccccc23)CSC[C@@H](C(=O)N[C@@H]2C(=O)N3CCC[C@H]3C(=O)NCC(=O)N[C@H](C(=O)N[C@H](C(=O)N[C@@H]3C(=O)NCC(=O)N[C@@H](C)C(=O)N[C@@H](CC(C)C)C(=O)N[C@@H](CCC(N)=O)C(=O)N/C(=C/C)C(=O)N[C@H](C(=O)N[C@@H](Cc4ccccc4)C(=O)N[C@@H](CC(C)C)C(=O)N[C@@H](CCC(N)=O)C(=O)N[C@@H]4C(=O)N[C@@H](CC(C)C)C(=O)N[C@H]5C(=O)N[C@@H](CSC4C)C(=O)NC(=O)[C@H](CC(N)=O)N[C@H](C(=O)N[C@@H](CCCCN)C(=O)N[C@H](C(=O)NC(=C)C(=O)N[C@@H](CCCCN)C(=O)O)[C@@H](C)CC)CSC5C)CSC3C)C(C)C)CSC2C)N[C@@H](CC(C)C)C(=O)NC1=O` (stereo not given in full) [SUBTILIN] gave an MIC against Lactococcus lactis of 1.13 µg/mL (≈ 0.34 µM).

A word on the MIC: it is the lowest concentration found to suppress growth. A higher MIC goes with weaker potency.
